Article PMC8264504, “Identification of Koumine as a Translocator Protein 18 kDa Positive Allosteric Modulator for the Treatment of Inflammatory and Neuropathic Pain” (Frontiers in Pharmacology, 2021)
Where two headings read alike, the source gives them in different places.

Experiments:
[1] = target: T1, mouse TSPO recombinant protein (TSPO proteoliposomes) (Mus musculus, UniProt P50637); experiment: SPR single-cycle kinetics on TSPO proteoliposomes; type: binding
T1 construct: His tag; made in house; host or cells: Escherichia coli BL21(DE3) pLysS, pET15b vector
Protocol: (§1) Cells of the BL21(DE3) pLysS Escherichia coli strain were transformed with the pET15b vector, from which the expression of mouse TSPO recombinant protein was induced by 1 mM isopropyl-1-thiol-β-D-galactopyranoside as previously described ([Robert and Lacapère, 2010]; [Senicourt et al., 2017]). Cells were harvested and resuspended in lysis buffer (150 mM NaCl and 50 mM HEPES-Na, pH 7.8) with the addition of 1 mg/ml lysozyme and sonicated thoroughly. The lysate was centrifuged at 15,000 g at 4°C for 20 min to pellet the insoluble inclusion bodies. The final pellet of inclusion bodies was solubilized in binding buffer (150 mM NaCl, 50 mM HEPES-Na, 1% SDS (wt/vol), pH 7.8) and was purified by the Ni-NTA gravity flow column.
Proteoliposomes composed of DMPC/DMPE (9:1) and TSPO in a 5:1 (wt/wt) ratio were prepared using a previously described method ([Ostuni et al., 2010]). Liposomes composed of DMPC/DMPE (9:1) were prepared as published previously ([Hatty et al., 2014]). A few milligrams of DMPC and DMPE were weighed into a round-bottom glass flask, and chloroform and methanol were added to dissolve them. A thin lipid film was prepared by a rotary evaporator and dried under vacuum for at least 3 h to remove all traces of chloroform and methanol. The dry lipid film was resuspended in PBS buffer (10 mM phosphate buffer, 2.7 mM KCl, 137 mM NaCl) to a concentration of 1 mg/ml, hydrated for 2 h at 45–55°C, and finally sonicated to produce small unilamellar vesicles. The suspension of small unilamellar vesicles was then kept at 45°C for use on the same day. The sizes of proteoliposomes and liposomes were determined by dynamic light scattering using Nicomp 380 Z3000 instrument (Parficle Sizing Systems, America).
SPR analyses were performed at 25°C with a Biacore T200 instrument. For proteoliposomes and liposomes (reference), they were immobilized on a series S L1 sensor chips. It is possible that the repeated regeneration steps in the multicycle kinetics process impairs the activity of TSPO proteoliposomes, thus we were unable to use multicycle kinetics to effectively determine the affinity of TSPO and its ligands. Therefore, the single cycle kinetics, which assumes to be as robust as the classical multicycle kinetics for measuring affinity, was used. Kinetic rate constants for the various analytes were determined using single cycle protocols where five serial 2-fold dilutions of the analytes were injected for 180 s without intervening regeneration, followed by a 300 s dissociation phase after the last injection. Interactions were measured at 30 μl/min. PBS, with addition of 1% DMSO (pH 7.4), was used as running buffer. […] For mouse TSPO in a lipid-free environment, affinity was measured according to established methods with minor modifications ([Zhang et al., 2015]). […]

[2] = target: T2, mouse TSPO recombinant protein (Mus musculus, UniProt P50637); experiment: SPR multicycle kinetics, mouse TSPO in a lipid-free environment; type: binding; settings: CM5 chip, anti-His capture, read-out: affinity to mouse TSPO
T2 construct: made in house; host or cells: Escherichia coli BL21(DE3) pLysS, pET15b vector
Protocol: as §1
SPR analyses were performed at 25°C with a Biacore T200 instrument. For proteoliposomes and liposomes (reference), they were immobilized on a series S L1 sensor chips. It is possible that the repeated regeneration steps in the multicycle kinetics process impairs the activity of TSPO proteoliposomes, thus we were unable to use multicycle kinetics to effectively determine the affinity of TSPO and its ligands. Therefore, the single cycle kinetics, which assumes to be as robust as the classical multicycle kinetics for measuring affinity, was used. Kinetic rate constants for the various analytes were determined using single cycle protocols where five serial 2-fold dilutions of the analytes were injected for 180 s without intervening regeneration, followed by a 300 s dissociation phase after the last injection. Interactions were measured at 30 μl/min. PBS, with addition of 1% DMSO (pH 7.4), was used as running buffer. Three consecutive 1 min injections with 10 μl/min of glycine HCl 3.0 at the end of each single-cycle kinetics regenerated the chip. For mouse TSPO in a lipid-free environment, affinity was measured according to established methods with minor modifications ([Zhang et al., 2015]). Briefly, HBS-EP buffer was used as the running buffer. […]

[3] = tested on: rat model of CIA; experiment: Collagen-induced arthritis (CIA) model, MWT and hind paw volume; type: in vivo
Protocol: The induction of CIA in Lewis rats followed protocols and used reagents supplied by Chondrex. Bovine type II collagen (2 mg/ml in 0.05 M acetic acid) was emulsified with incomplete Freund’s adjuvant (IFA; Sigma-Aldrich) using an electric homogenizer equipped with a small blade. Equal volumes of collagen and IFA were mixed in an ice water bath, and collagen was added dropwise to the IFA at 1,000–3,000 rpm. […] Lewis rats were anesthetized and received 0.2 ml of collagen emulsion by subcutaneous injection at the base of the tail. Booster injections were given on day 7 of the study with 0.1 ml of emulsion. Immunized rats received Ro5-4864, koumine or vehicle for seven consecutive days beginning from day 29 after the first collagen injection. The mechanical withdrawal threshold (MWT) was determined on day 29 and day 35, the hind paw volume was determined on day 35, and was measured 60 min following the MWT measurement. Koumine or vehicle was injected s. c., and MWT values were determined 60 min after koumine injection. Ro5-4864 or vehicle was injected i. p., and MWT was determined 50 min after Ro5-4864 injection. To determine whether koumine potentiated the effects of Ro5-4864, koumine (1.0 mg/kg, s. c.) or vehicle was injected 10 min before Ro5-4864 (0.0625–1.0 mg/kg, i. p.) injection, and the MWT was determined 50 min after the last injection. Animals were randomized for treatment and behavioral test were performed in a blinded manner. Mechanical allodynia and edema measurement were measured using the procedures described below. Only rats with mechanical withdrawal threshold scores (calculated by mechanical withdrawal threshold of immunized rats/mechanical withdrawal threshold of normal rats) on day 28 after the first collagen injection >0.75 were used in the study.
Mechanical allodynia was measured using a commercially available electronic von Frey apparatus (Model 2,390; IITC Life Science Inc., Woodland Hills, CA) as described by Mitrirattanakul ([Mitrirattanakul et al., 2006]) with minor modifications. Rats were placed in a Plexiglas box on a steel mesh floor, and analyses were performed using an electronic von Frey apparatus. Stimulation was applied to the center of the hind paw in an upward motion of the von Frey filament until foot withdrawal occurred, and the withdrawal threshold was automatically recorded. The maximum strength of the filament used for von Frey testing was 55 g. The procedure was repeated three times at approximately 5 min intervals for each hind paw, and the MWT was calculated as the mean of the three latencies.
Arthritic edema was assessed by measuring the hind paw volume with a plethysmometer (Yi Yan Technology Development Co., Ltd.) according to the manufacturer’s recommendations.

[4] = tested on: rat C6 glioma cells; experiment: Pregnenolone production; type: cell-based; settings: for EC50: read-out: EC50, pregnenolone production
[5] = acute administration alone on day 29
[6] = given alone daily day 29 to day 35, MWT on day 35

C=C[C@@]12CN(C)[C@H]3C[C@]14C(=Nc1ccccc14)[C@H]1C[C@@H]2[C@@H]3CO1 [koumine]
Kd [1]: 0.00086 ± 7e-05 µM
Kd [2]: 97.4 ± 1.76 µM
mechanical allodynia (MWT) [3, 5]: dose-dependent inhibition effect
modulation of Ro5-4864 antinociceptive effect (MWT) ([3]; acute coadministration of 1.0 mg/kg koumine s.c. and Ro5-4864 i.p., day 29): clearly augmented the antinociceptive effect
mechanical allodynia (MWT) [3, 6]: clearly reduced mechanical allodynia
modulation of Ro5-4864-mediated anti-edematogenic effect (hind paw volume) ([3]; koumine 1.0 mg/kg s.c. coadministered with Ro5-4864 0.25 mg/kg i.p., successive administration, day 35): notably increased
modulation of Ro5-4864-mediated analgesic effect (MWT) ([3]; koumine 1.0 mg/kg s.c. coadministered with Ro5-4864 0.125–1.0 mg/kg i.p., successive administration, day 35): notably increased
paw edema (hind paw volume) ([3]; koumine alone daily day 29 to day 35 s.c., day 35): did not produce an anti-edematogenic effect
EC50 ([4]; Rattus norvegicus, C6 glioma, 2 h): 270 µM
Emax ([4]; Rattus norvegicus, C6 glioma, 2 h, read-out: Emax, pregnenolone production): 33%
modulation of pregnenolone production activity ([4]; koumine with an EC20 concentration of PK11195 (∼27 μM)): did not significantly increase
modulation of pregnenolone production activity ([4]; koumine with an EC20 concentration of Ro5-4864 (∼11 μM)): did not significantly increase

CN1C(=O)CN=C(c2ccc(Cl)cc2)c2cc(Cl)ccc21 [Ro5-4864, reference compound]
Kd ([1]; SPR single-cycle kinetics, TSPO proteoliposomes on L1 chip, 25°C, Langmuir 1:1 fit, read-out: KD): 0.00206 ± 0.00011 µM
Kd [2]: 170 ± 6.07 µM
paw edema (hind paw volume) ([3]; Ro5-4864 alone at the highest dose tested, daily day 29 to day 35 i.p., day 35): significantly inhibited paw edema
mechanical allodynia (MWT) [3, 5]: reduced mechanical allodynia
mechanical allodynia (MWT) [3, 6]: clearly reduced mechanical allodynia
EC20 concentration, pregnenolone production [4]: ~11 µM
increase in pregnenolone production [4]: approximately 50%
EC50 [4]: 29 µM
